Article PMC4457528, “Identification of Novel Small Molecule Inhibitors of Oncogenic RET Kinase” (PLoS ONE, 2015)
Read-outs that look alike come from different tables or passages of the source.

Tests used:
Experiment in all cases: KinomeScan kinase panel, single concentration 10 µM
Format in all cases: binding
KinomeScan kinase panel [1] = molecular target: T1, KinomeScan kinase panel (Homo sapiens, UniProt O15264); conditions: p38-delta, 10 µM; read-out: score (%)
T1 construct: purchased DiscoveRx (KinomeScan)
T1 sequence (O15264 1-365): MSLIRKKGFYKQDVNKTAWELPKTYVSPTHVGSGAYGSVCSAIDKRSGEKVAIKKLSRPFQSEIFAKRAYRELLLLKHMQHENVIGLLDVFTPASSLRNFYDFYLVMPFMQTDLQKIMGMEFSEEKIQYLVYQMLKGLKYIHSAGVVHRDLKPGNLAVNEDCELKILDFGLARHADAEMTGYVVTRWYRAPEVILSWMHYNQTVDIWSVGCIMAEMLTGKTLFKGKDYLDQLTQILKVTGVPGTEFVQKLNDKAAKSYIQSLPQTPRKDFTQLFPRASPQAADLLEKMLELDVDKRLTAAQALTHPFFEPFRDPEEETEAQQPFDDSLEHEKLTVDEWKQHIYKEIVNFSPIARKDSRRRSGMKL

KinomeScan kinase panel [2] = molecular target: T2, KinomeScan kinase panel (Homo sapiens, UniProt P04049); conditions: read-out: score (%)
T2 construct: purchased DiscoveRx (KinomeScan)

KinomeScan kinase panel [3] = molecular target: T3, KinomeScan kinase panel (Homo sapiens, UniProt P54756); conditions: EPHA5, 10 µM
T3 construct: purchased DiscoveRx (KinomeScan)

KinomeScan kinase panel [4] = molecular target: T4, KinomeScan kinase panel (Homo sapiens, UniProt Q9Y6R4); conditions: MAP3K4, 10 µM; read-out: score (%)
T4 construct: purchased DiscoveRx (KinomeScan)

KinomeScan kinase panel [5] = molecular target: T5, KinomeScan kinase panel (Homo sapiens, UniProt Q86YV6); conditions: read-out: score (%)
T5 construct: purchased DiscoveRx (KinomeScan)
T5 sequence (Q86YV6 1-388): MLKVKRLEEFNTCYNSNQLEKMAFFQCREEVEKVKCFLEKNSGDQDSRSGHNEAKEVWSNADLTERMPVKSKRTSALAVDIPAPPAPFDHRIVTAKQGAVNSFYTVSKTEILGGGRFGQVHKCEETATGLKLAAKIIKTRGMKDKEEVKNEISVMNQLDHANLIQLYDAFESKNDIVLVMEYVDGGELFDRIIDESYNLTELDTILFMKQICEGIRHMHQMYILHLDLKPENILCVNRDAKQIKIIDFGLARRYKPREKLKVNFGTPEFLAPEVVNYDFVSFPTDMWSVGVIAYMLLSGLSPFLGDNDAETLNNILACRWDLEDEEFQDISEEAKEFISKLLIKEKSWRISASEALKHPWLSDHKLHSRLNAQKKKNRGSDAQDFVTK

KinomeScan kinase panel [6] = molecular target: T6, KinomeScan kinase panel (Homo sapiens, UniProt Q00536); conditions: PCTK1, 10 µM; read-out: score (%)
T6 construct: purchased DiscoveRx (KinomeScan)

KinomeScan kinase panel [7] = molecular target: T7, KinomeScan kinase panel (Homo sapiens, UniProt O14757); conditions: CHEK1, 10 µM
T7 construct: purchased DiscoveRx (KinomeScan)
T7 sequence (O14757 1-476): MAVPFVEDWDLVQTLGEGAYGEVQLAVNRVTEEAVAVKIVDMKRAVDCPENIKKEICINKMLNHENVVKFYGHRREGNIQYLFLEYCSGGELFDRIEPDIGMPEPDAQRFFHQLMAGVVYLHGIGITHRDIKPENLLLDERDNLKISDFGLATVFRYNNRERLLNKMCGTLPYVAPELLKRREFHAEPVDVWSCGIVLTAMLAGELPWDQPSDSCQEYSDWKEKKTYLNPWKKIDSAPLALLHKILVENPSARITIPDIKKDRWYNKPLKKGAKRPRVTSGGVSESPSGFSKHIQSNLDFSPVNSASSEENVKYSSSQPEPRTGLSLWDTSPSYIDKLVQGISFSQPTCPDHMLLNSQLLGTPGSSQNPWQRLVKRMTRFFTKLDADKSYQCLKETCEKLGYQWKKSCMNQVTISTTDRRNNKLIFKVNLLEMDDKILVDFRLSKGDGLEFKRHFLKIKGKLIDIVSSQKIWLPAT

KinomeScan kinase panel [8] = molecular target: T8, KinomeScan kinase panel (Homo sapiens, UniProt Q9NY57); conditions: kinase YANK2; 10 µM; read-out: score (%)
T8 construct: purchased DiscoveRx (KinomeScan)

KinomeScan kinase panel [9] = molecular target: T9, KinomeScan kinase panel (Homo sapiens, UniProt P16234); conditions: PDGFRA, 10 µM; read-out: score (%)
T9 construct: purchased DiscoveRx (KinomeScan)

KinomeScan kinase panel [10] = molecular target: T10, KinomeScan kinase panel (Homo sapiens, UniProt P49674); conditions: CSNK1E, 10 µM; read-out: score (%)
T10 construct: purchased DiscoveRx (KinomeScan)

KinomeScan kinase panel [11] = molecular target: T11, KinomeScan kinase panel (Homo sapiens, UniProt P16591); conditions: FER, 10 µM; read-out: score (%)
T11 construct: purchased DiscoveRx (KinomeScan)

KinomeScan kinase panel [12] = molecular target: T12, KinomeScan kinase panel (Homo sapiens, UniProt P49759); conditions: CLK1, 10 µM; read-out: score (%)
T12 construct: purchased DiscoveRx (KinomeScan)

KinomeScan kinase panel [13] = molecular target: T13, KinomeScan kinase panel (Homo sapiens, UniProt P42684); conditions: ABL2, 10 µM; read-out: score (%)
T13 construct: purchased DiscoveRx (KinomeScan)

KinomeScan kinase panel [14] = molecular target: T14, KinomeScan kinase panel (Homo sapiens, UniProt Q96D53); conditions: ADCK4, 10 µM; read-out: score (%)
T14 construct: purchased DiscoveRx (KinomeScan)
T14 sequence (Q96D53 1-544): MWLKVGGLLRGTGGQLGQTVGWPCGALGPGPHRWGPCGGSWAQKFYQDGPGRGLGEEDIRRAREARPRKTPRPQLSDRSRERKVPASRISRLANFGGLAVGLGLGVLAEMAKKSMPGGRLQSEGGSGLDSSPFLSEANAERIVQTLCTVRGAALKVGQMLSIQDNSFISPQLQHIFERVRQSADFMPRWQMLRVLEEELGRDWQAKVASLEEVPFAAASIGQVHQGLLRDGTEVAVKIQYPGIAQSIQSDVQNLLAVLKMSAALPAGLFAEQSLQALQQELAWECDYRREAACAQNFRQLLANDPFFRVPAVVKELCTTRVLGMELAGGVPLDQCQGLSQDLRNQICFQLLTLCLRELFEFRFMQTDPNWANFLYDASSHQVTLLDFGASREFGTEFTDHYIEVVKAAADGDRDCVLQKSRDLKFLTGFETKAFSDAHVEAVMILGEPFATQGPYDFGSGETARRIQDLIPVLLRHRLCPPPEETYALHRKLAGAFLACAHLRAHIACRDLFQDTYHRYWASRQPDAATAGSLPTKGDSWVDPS

KinomeScan kinase panel [15] = molecular target: T15, KinomeScan kinase panel (Homo sapiens, UniProt Q9BWU1); conditions: CDK11, 10 µM
T15 construct: purchased DiscoveRx (KinomeScan)
T15 sequence (Q9BWU1 whole entry): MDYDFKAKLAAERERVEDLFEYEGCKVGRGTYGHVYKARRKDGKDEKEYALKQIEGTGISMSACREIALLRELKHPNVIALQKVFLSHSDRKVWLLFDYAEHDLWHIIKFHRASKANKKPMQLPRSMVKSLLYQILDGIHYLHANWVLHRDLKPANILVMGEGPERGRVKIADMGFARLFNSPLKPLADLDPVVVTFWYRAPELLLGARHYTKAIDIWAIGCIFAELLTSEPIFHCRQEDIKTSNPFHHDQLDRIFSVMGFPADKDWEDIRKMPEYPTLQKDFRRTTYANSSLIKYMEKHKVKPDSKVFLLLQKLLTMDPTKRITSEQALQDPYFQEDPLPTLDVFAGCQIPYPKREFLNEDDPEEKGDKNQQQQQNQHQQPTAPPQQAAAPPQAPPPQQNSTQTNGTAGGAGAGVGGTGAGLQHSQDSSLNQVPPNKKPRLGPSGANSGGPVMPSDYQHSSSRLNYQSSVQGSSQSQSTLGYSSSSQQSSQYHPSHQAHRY

T4 sequence (Q9Y6R4 whole entry): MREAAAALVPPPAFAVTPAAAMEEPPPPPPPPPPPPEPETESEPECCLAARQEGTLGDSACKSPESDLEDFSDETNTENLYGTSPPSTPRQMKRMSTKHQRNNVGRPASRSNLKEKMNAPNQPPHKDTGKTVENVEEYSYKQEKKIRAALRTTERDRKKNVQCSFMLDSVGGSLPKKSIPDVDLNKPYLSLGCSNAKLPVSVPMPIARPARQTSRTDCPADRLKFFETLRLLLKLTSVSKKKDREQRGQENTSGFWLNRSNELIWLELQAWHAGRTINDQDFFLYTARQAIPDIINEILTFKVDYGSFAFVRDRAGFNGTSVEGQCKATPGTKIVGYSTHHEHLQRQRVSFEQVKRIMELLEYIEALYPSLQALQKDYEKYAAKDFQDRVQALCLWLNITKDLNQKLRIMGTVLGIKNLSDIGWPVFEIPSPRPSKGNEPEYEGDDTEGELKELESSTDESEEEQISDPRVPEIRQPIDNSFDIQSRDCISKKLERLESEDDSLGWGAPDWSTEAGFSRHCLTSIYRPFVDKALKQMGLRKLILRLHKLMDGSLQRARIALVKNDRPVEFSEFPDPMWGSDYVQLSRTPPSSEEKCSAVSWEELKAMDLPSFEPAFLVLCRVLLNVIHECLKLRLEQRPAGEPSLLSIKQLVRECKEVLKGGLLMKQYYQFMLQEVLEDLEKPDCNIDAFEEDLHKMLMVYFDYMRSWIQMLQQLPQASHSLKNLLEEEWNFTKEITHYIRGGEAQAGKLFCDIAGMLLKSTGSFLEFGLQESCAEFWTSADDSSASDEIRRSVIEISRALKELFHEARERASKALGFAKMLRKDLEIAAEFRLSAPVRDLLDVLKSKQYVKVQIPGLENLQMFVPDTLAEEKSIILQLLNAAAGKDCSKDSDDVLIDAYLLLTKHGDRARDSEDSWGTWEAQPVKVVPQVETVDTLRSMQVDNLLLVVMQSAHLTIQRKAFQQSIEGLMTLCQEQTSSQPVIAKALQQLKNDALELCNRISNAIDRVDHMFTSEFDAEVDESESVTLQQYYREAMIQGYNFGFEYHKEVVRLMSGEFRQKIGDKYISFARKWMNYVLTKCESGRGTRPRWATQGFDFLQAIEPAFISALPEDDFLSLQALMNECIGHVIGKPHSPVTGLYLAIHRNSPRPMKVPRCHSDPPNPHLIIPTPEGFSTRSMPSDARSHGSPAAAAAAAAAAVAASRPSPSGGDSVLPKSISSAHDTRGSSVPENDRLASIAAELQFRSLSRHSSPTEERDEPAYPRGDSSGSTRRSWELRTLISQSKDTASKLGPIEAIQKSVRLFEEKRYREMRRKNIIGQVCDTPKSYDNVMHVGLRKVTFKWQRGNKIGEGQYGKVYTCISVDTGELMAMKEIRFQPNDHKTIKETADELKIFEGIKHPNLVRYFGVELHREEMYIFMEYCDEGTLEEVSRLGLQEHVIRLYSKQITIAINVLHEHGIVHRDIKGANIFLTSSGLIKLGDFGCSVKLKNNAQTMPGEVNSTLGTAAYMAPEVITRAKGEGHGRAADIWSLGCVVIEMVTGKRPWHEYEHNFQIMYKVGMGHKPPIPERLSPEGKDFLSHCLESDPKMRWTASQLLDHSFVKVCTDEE
T13 sequence (P42684 whole entry): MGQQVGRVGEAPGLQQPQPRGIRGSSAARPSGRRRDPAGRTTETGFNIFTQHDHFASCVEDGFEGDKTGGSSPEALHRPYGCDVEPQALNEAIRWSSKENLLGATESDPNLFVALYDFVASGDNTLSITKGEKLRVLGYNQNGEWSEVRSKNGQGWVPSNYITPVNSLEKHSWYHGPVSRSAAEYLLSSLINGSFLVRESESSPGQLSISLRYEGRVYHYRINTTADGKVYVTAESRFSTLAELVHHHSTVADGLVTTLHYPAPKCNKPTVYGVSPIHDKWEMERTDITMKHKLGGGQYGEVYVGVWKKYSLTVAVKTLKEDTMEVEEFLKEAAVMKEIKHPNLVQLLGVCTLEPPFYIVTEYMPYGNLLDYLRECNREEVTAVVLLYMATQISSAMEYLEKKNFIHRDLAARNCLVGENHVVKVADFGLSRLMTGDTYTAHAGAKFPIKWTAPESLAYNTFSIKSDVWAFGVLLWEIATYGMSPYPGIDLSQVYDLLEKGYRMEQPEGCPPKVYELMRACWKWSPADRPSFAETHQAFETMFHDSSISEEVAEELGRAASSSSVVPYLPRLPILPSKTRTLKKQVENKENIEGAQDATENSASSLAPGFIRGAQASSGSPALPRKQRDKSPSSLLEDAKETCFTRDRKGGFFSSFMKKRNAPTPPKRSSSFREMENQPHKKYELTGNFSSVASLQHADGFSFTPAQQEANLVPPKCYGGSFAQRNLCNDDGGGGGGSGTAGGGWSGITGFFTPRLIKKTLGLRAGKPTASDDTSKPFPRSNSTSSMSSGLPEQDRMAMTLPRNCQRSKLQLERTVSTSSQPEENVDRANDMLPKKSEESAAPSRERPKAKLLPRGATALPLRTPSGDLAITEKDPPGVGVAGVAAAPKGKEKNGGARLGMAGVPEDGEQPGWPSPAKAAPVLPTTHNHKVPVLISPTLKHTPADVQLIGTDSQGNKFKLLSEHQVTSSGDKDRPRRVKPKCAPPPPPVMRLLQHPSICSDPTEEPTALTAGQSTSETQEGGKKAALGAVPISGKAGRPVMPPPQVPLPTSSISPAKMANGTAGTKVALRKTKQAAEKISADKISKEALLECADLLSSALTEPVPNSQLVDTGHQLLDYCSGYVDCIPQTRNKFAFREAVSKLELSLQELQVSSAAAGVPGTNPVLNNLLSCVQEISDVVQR
T8 sequence (Q9NY57 whole entry): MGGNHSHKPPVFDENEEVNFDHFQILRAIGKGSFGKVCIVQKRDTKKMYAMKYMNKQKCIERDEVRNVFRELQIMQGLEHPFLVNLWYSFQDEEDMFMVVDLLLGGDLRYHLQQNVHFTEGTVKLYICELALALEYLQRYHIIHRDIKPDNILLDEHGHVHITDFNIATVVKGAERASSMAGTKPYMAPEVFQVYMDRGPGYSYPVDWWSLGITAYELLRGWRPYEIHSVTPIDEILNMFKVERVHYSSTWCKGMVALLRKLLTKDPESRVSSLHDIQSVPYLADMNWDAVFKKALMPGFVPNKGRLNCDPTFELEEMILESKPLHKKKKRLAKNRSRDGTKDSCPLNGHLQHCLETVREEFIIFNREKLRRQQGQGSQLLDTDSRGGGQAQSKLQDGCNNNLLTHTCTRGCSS
T6 sequence (Q00536 whole entry): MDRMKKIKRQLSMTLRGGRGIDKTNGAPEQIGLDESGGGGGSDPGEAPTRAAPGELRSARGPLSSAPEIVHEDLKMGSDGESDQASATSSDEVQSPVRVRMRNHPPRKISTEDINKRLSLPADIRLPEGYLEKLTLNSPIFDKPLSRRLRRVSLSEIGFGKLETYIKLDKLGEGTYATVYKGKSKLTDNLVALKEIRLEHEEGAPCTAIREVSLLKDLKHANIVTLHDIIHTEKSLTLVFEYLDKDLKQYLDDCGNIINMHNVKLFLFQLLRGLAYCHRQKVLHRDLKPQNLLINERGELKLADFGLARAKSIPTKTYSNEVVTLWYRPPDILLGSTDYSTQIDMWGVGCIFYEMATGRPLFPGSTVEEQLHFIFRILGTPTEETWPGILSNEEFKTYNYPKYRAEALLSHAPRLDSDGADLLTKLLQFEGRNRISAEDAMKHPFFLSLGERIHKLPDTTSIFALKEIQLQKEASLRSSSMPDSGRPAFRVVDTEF
T12 sequence (P49759 whole entry): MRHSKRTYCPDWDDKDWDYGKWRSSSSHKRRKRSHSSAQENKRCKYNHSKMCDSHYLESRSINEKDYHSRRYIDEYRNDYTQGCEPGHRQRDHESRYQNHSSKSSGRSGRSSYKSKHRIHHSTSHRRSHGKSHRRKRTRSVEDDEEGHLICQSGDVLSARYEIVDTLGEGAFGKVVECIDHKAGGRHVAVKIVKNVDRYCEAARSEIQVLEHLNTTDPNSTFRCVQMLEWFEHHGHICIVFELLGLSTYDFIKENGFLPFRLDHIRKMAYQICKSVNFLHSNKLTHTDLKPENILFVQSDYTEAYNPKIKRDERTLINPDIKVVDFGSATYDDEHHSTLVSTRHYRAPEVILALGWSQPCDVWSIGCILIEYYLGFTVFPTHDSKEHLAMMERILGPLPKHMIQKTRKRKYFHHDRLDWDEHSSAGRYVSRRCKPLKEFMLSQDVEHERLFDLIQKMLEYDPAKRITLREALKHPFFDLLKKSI

Structure (SMILES) | remaining binding at 10 µM (KinomeScan kinase panel [1]) [%] | remaining binding at 10 µM (KinomeScan kinase panel [2]; RAF1, 10 µM) [%] | score (%) (KinomeScan kinase panel [3]) | remaining binding at 10 µM (KinomeScan kinase panel [4]) [%] | remaining binding at 10 µM (KinomeScan kinase panel [5]; kinase SgK085, 10 µM) [%] | remaining binding at 10 µM (KinomeScan kinase panel [6]) [%] | score (%) (KinomeScan kinase panel [7]) | remaining binding at 10 µM (KinomeScan kinase panel [8]) [%] | remaining binding at 10 µM (KinomeScan kinase panel [9]) [%] | remaining binding at 10 µM (KinomeScan kinase panel [10]) [%] | remaining binding at 10 µM (KinomeScan kinase panel [11]) [%] | remaining binding at 10 µM (KinomeScan kinase panel [12]) [%] | remaining binding at 10 µM (KinomeScan kinase panel [13]) [%] | remaining binding at 10 µM (KinomeScan kinase panel [14]) [%] | score (%) (KinomeScan kinase panel [15]) | remaining binding at 10 µM (KinomeScan kinase panel [5]; SgK085, 10 µM) [%] | remaining binding at 10 µM (KinomeScan kinase panel [2]; kinase RAF1, 10 µM) [%] | remaining binding at 10 µM (KinomeScan kinase panel [5]; MYLK4, 10 µM) [%]
CCN1CCN(Cc2ccc(NC(=O)c3ccc(C)c(NC(=O)c4cncc(-c5cccs5)c4)c3)cc2C(F)(F)F)CC1 [ALW-II-41-27] | 29 | 1.4 | 0.25 | > 30 | > 30 | > 30 | nb (Hits values higher than 30% were considered negative (no binding: nb)) | > 30 | 0 | 0.8 | 5.6 | 1.1 | 0.1 | > 30 | 3.8 |  |  | 
CCN1CCN(Cc2ccc(NC(=O)c3ccc(C)c(/C=C/c4cnc5[nH]ccc5c4Cl)c3)cc2C(F)(F)F)CC1 [HG-6-63-01, (E)-3-(2-(4-chloro-1H-pyrrolo[2,3-b]pyridin-5-yl)vinyl)-N-(4-((4-ethylpiperazin-1-yl)methyl)-3-(trifluoromethyl)phenyl)-4-methylbenzamide] | > 30 | 2.4 | 3.3 | > 30 |  | > 30 | 25% | > 30 | 0 | 15 | 14 | 27 | 0.1 | > 30 | 3 | 8.5 |  | 
CCN1CCN(Cc2ccc(NC(=O)c3ccc(C)c(C#Cc4cccnc4)c3)cc2C(F)(F)F)CC1 [XMD15-44] | 2.5 |  | 1.2 | > 30 |  | 8.4 | nb (Hits values higher than 30% were considered negative (no binding: nb)) | 100 | 0 | > 30 | 11 | 3.9 | 0.05 | > 30 | 5 |  | 0.5 | > 30
